The text below walks through data of article PMC11200585, “Prospects for Prostate Cancer Chemotherapy: Cytotoxic Evaluation and Mechanistic Insights of Quinolinequinones with ADME/PK Profile” (Biomedicines, 2024).

For data set [1], the system named is DU-145 cells. In words: MTT assay. Type of data set: cell-based. Conditions: Homo sapiens, 24 h, mean ± SEM. As for the experimental part: (§1) For the MTT assay, DU-145, MDA-MB-231, HCT-116, and HUVEC cells (American Type Culture Collection) were seeded at a concentration of 1 × 10^4 cells per well in 96-well plates and allowed to incubate overnight, ensuring proper adherence. Subsequently, a series of concentrations for both AQQ1 and AQQ2 (ranging from 1 to 100 µM) were added to the culture medium with a final concentration of 1% DMSO, and cells were subjected to an additional 24 h incubation period. The control group only received 1% DMSO (Biomatik, Cambridge, ON, Canada). To establish a baseline for comparison, DOXO (Saba, İstanbul, Turkey), a known chemotherapeutic agent, was administered at equivalent concentrations. Following the incubation period, MTT (3-(4,5-dimethylthiazol-2-yl)-2,5-diphenyltetrazolium bromide) (Biomatik, Canada) assay was carried out to assess cell viability. Finally, the absorbance was quantified at 590 nm using a BioTek Epoc plate reader (Biotek, Winooski, VT, USA). The derived data were analysed using GraphPad Prism 8 software to calculate the inhibitory concentration 50 (IC50) values of the test compounds.
In general terms: Tetrazolium assays rely on reduction of a dye to a coloured formazan, in cell work by metabolically active cells.

The test system of data set [2] is HCT-116 cells. In words: MTT assay. The class given is cell-based. Conditions: Homo sapiens, 24 h, mean ± SEM. The procedure: as §1
Data set [3] deals with Human Umbilical Vein Endothelial Cells (HUVEC). Briefly: MTT assay. Type of data set: cell-based. As to conditions: 24 h, mean ± SEM. As for the experimental part:
as §1

The test system of data set [4] is MDA-MB-231 cells. In words: MTT assay. The class given is cell-based. As to conditions: Homo sapiens, 24 h, mean ± SEM. The procedure:
as §1

For data set [5], the system named is DU-145 cells. In words: Scratch assay (cell migration). The class given is cell-based. As to conditions: Homo sapiens, 24 h, read-out: DU-145 cell migration inhibited. The procedure:
DU-145 cells were grown in 6-well plates until they reached confluence. A straight-line scratch was then carefully created in the cell layer using a sterile pipette tip. The medium was replaced to remove any detached cells. The cells were treated with varying concentrations of AQQ1 (1, 2.5, and 5 µM) along with negative control for 24 h and the cells were allowed to migrate into the denuded area. The brightfield images were taken under the microscope at 0 h and over 24 h. The extent of wound closure is quantified by measuring the change in the width of the scratch with Fiji Image J wound healing size macro [20].

Data set [6] deals with DU-145 cells. In words: Colony formation assay. Type of data set: cell-based, human. As to conditions: 24 h treatment, 10 days growth. As for the experimental part: DU-145 cells were seeded in 6-well plates at a density of 1000 cells/well and allowed to incubate overnight. Then, the cells were treated with varying concentrations of AQQ1 (1, 2.5, and 5 µM) along with negative control and 2.5 µM DOXO for 24 h. After a medium refreshment, the cells were allowed to grow for 10 days. After incubation, the colonies are fixed with cold methanol for 5 min and then stained with a 0.5% crystal violet solution (prepared in 10% methanol) for 20 min. The plates were allowed to air-dry and the colonies were counted manually.

Data set [7] relates to DU-145 cells. Briefly: Oxidative stress: intracellular ROS (DCFDA, flow cytometry). The class given is cell-based, human. As to conditions: 1, 2.5, 5 µM, 24 h. As for the experimental part: DU-145 cells were initially seeded at a density of 1 × 10^6 cells per well in 6-well plates. Cells were subjected to AQQ1 treatments as described earlier. After an incubation period, the cells were treated with varying concentrations of AQQ1 (1, 2.5, and 5 µM) for 24 h. ROS analysis was carried out using the DCFDA oxidation method according to Eruslanov and Kusmartsev with some modifications. For positive control, the cells were exposed to 100 µM H2O2 for 30 min. Then, the medium was discarded, 20 µM DCDFA (Sigma-Aldrich, USA) in culture medium was added to the wells, and plates were incubated for 15 min in the dark. The cells were analysed with NovoCyte (Agilent, Palo Alto, CA, USA) flow cytometry using NovoExpress version 1.6.2 software (Agilent, USA).
Background: Flow cytometry measures light scatter and fluorescence of single cells or particles in a stream.

A short description of data set [8]: Log P (experimental, n-octanol). Type of data set: physicochemical.
Data set [9] in a line: In vitro metabolic stability. The class given is in vitro ADME, rat (Sprague-Dawley). As to conditions: Rat liver microsomes; for % Metabolism in 30 min: 0.5 µM, 0.5 mg/mL protein; for half-life at 0.5 µM / microsomal CLint at 0.5 µM: male, Sprague-Dawley, pH 7.4. The procedure:
S2. ADME and PK Profiling
S2.1. In vitro Metabolic Stability Study […]
metabolic stability of AQQ1 and AQQ2. A final protein (liver microsomal) concentration of 0.5 mg/mL and final test substance (AQQ1 and AQQ2) concentration of 0.5 µM were used for the study. To the respective microsomes at a volume of 12.5 µL in the well, 2.5 µL of test substance ([…] in acetonitrile: dimethyl sulfoxide, 96:4) in the presence and absence of NADPH (50 µL, 10 mM) were added and the final volume made up to 500 µL with sodium phosphate buffer (50 mM, pH 7.4). The one without NADPH served as control. Sampling (50 µL) were done at the following time points: 0, 5, 10, 15, and 30 min for sample and at 0 and 30 min for control.
Acetonitrile (150 µL) was used as quenching solvent, internal standard (Rolipram) was added, vortexed/centrifuged and the aliquot from the supernatant was analyzed using LC-MS/MS. All the experiments were performed in duplicate.
In general terms: Liver microsomes are a subcellular fraction often used to study metabolism.

Data set [10] relates to M14. Briefly: NCI-60 one-dose screen (melanoma). The class given is cell-based, human. Conditions: 10 µM single dose, 48 h.

Take `COc1ccccc1NC1=C(Cl)C(=O)c2nc(C)ccc2C1=O` [AQQ1]: the IC50 (in general, the concentration at which inhibition is half-maximal) was 4.18 ± 0.73 µM in data set [1], 5.83 ± 0.76 µM in data set [2], 5.39 ± 0.73 µM in data set [3] and 8.27 ± 0.91 µM in [4]. For the same compound, the inhibition at 1 µM in [5] (1 μM) came out at 13.4%. Also, the inhibition at 2.5 µM in data set [5] (2.5 μM) worked out at 23.7%. Moreover, the inhibition at 5 µM in data set [5] (5 μM) came out at 49.8%. Moreover, in [6], the colony-forming ability result was “significantly reduced the colony-forming ability”. For the same compound, in data set [7], the “intracellular ROS levels” value was “significantly increased ROS levels dose-dependently”. The logP (commonly the decadic logarithm of the partition coefficient of the neutral form, usually between octanol and water) in [8] was 1.85. For the same compound, the “% Metabolism in 30 min” value in data set [9] was 100%. Further, the half-life – broadly, how long it takes for the measured level to halve – at 0.5 µM in [9] came to 2 min. The intrinsic metabolic clearance (microsomal CLint) (as a rule, the rate of metabolic loss divided by the concentration) at 0.5 µM in [9] turned out to be 656 µL/min/mg.

On to `CCOc1ccccc1NC1=C(Cl)C(=O)c2nc(C)ccc2C1=O` [AQQ2], for which the IC50 in data set [1] was 4.17 ± 0.8 µM; in [2], 9.18 ± 0.96 µM; in [3], 6.39 ± 0.8 µM; in data set [4] it was 13.3 ± 1.12 µM. For the same compound, the logP in data set [8] turned out to be 1.77. In addition, the “% Metabolism in 30 min” value in data set [9] was found to be 100%. Also, the half-life at 0.5 µM in data set [9] is 3 min. Besides, the microsomal CLint at 0.5 µM in data set [9] is 501 µL/min/mg.

With `COc1cc(NC2=C(Cl)C(=O)c3nc(C)ccc3C2=O)cc(OC)c1` [AQQ5], the “GP (growth percentage)” value in data set [10] was −95.99%.
